Measured values taken from patent US11903959B2 (EMORY UNIVERSITY, priority 2017, dated 2024).
Like-named read-outs stand apart in the source and are kept apart here.

Experiments:
[1] = cynomolgus monkey, in vivo, po; for AUC0->24 h / CL / Cmax / t1/2 / tmax: 0.4 mmol/kg
[2] = mouse, in vivo
in vitro [3] = conditions: human, microsomes
in vitro [4] = conditions: dog, microsomes
in vitro [5] = conditions: mouse, microsomes
in vitro [6] = conditions: monkey, microsomes
[7] = system: Influenza A/Wisconsin/67/2005 (H3N2); set-up: species or system ferrets; conditions: in vivo
in vitro [8] = conditions: rat, microsomes
[9] = system: Influenza A/California/07/2009 (H1N1); set-up: species or system ferrets; conditions: in vivo, po

In the case of CC(C)[C@H](N)C(=O)OC[C@H]1O[C@@H](n2ccc(NO)nc2=O)[C@H](O)[C@@H]1O [EIDD-2898], the “Plasma t1/2” value (Plasma stability, mouse) is reported as 144 min, the “Plasma t1/2” value (Plasma stability, human) is reported as 198 min and the “Plasma t1/2” value (Plasma stability, monkey) is reported as 138 min. The F [1] was roughly 15% and the “F*” value [1] was roughly 18%.

For O=c1nc(NO)ccn1[C@@H]1O[C@H](COP(=O)(O)OP(=O)(O)OP(=O)(O)O)[C@@H](O)[C@H]1O [EIDD-2061], the “Brain Cmax” value ([2]; 225 mg/kg) was 3.5 nmol/g, the “Brain Cmax” value ([2]; 750 mg/kg) was 5.5 nmol/g and the “AUC0->t” value (CEM cells) was 2355 pmol · h/M cells. For the same compound, the Cmax (CEM cells) was 171.3 pmol/M Cells, the tmax (CEM cells) was 1440 min and the “AUC0->t” value (Vero cells) was 13850 pmol · h/M cells. The Cmax (Vero cells) was 872.0 pmol/M Cells, the tmax (Vero cells) was 960 min and the “AUC0->t” value (Huh-7 cells) was 14640 pmol · h/M cells. The Cmax (Huh-7 cells) was 1113.3 pmol/M Cells, the tmax (Huh-7 cells) was 1440 min and the “AUC0->t” value (HepG2 cells) was 299.8 pmol · h/M cells. It also gave a Cmax (HepG2 cells) of 470.3 pmol/M Cells and a tmax (HepG2 cells) of 960 min.

With CC(C)C(=O)OC[C@H]1O[C@@H](n2ccc(NO)nc2=O)[C@H](O)[C@@H]1O [EIDD-2801] the half-life (in vitro [3]) was 73 min, the half-life (in vitro [4]) was 1 min and the half-life (in vitro [5]) was 2 min. The half-life (in vitro [6]) was 1 min, the “viral titers in nasal lavage and turbinates” value ([7]; 20 mg/kg) was “greatly reduced” and the “Viral titers in nasal lavage, fever, and viral titers in turbinates” value ([7]; 100 mg/kg) was “greatly reduced”. The half-life (in vitro [8]) was 5 min, the Fever [9] was “completely avoided” and the “Viral titers in nasal lavage samples” value [9] was “greatly reduced”. The “viral titers in nasal lavage samples and fever” value [9] was “rapidly reduce viral titers in nasal lavage samples as well as fever”, the F ([1]; female) was roughly 26% and the “AUC0->24 h” value ([1]; female) was 43.8 ± 17.0 µM·h. The CL ([1]; female) was 172 ± 93.3 mL/min/kg, the Cmax ([1]; female) was 12.3 ± 2.33 µM and the t1/2 ([1]; female) was 114 ± 78 min. The tmax ([1]; female) was 75 ± 30 min, the “AUC0->24 h” value ([1]; male) was 31.7 ± 7.82 µM·h and the CL ([1]; male) was 217 ± 61.7 mL/min/kg. The Cmax ([1]; male) was 8.08 ± 1.32 µM, the t1/2 ([1]; male) was 108 ± 54.6 min and the tmax ([1]; male) was 120 ± 48.6 min.

In the case of CC(C)C(=O)OC[C@H]1O[C@@H](n2ccc(NO)nc2=O)[C@H](OC(=O)C(C)C)[C@@H]1OC(=O)C(C)C [EIDD-2800], the half-life (in vitro [3]) is reported as 1 min, the “Plasma t1/2” value (Plasma stability, mouse) is reported as 1 min and the half-life (in vitro [6]) is reported as 2 min. For the same compound, the “Plasma t1/2” value (Plasma stability, human) was 1 min, the “Plasma t1/2” value (Plasma stability, monkey) was 2 min and the F ([1]; female) was roughly 16%. For the same compound, the “AUC0->24 h” value ([1]; female) was 27.4 ± 11.5 µM·h, the CL ([1]; female) was 265 ± 128 mL/min/kg and the t1/2 ([1]; female) was 264 ± 72 min. The tmax ([1]; female) was 18.6 ± 7.2 min, the “AUC0->24 h” value ([1]; male) was 38.9 ± 7.58 µM·h and the CL ([1]; male) was 152 ± 21.7 mL/min/kg. For the same compound, the t1/2 ([1]; male) was 330 ± 252 min and the tmax ([1]; male) was 22.2 ± 8.4 min.
